≈ marks a conversion by molar mass, not a printed value.
Assays:
Assay type in all cases: functional
Haemophilus influenzae [1] = test: Antimicrobial activity against beta-lactamase positive, ampicillin-clavulanic acid resistant Haemophilus influenzae expressing […] mutant gene assessed as resistant isolates by microdilution method in presence of beta-lactamase inhibitor clavulanic acid
Haemophilus influenzae [2] = test: Antimicrobial activity against beta-lactamase negative, ampicillin-resistant Haemophilus influenzae expressing […] mutant gene assessed as resistant isolates by microdilution method in presence of beta-lactamase inhibitor clavulanic acid
Haemophilus influenzae [3] = test: Antimicrobial activity against beta-lactamase positive Haemophilus influenzae expressing […] gene by microdilution method in presence of beta-lactamase inhibitor clavulanic acid
Haemophilus influenzae [4] = test: Antimicrobial activity against beta-lactamase negative Haemophilus influenzae expressing […] gene by microdilution method in presence of beta-lactamase inhibitor clavulanic acid
Haemophilus influenzae [5] = test: Antimicrobial activity against beta-lactamase positive Haemophilus influenzae expressing […] gene assessed as resistant isolates by microdilution method in presence of beta-lactamase inhibitor clavulanic acid
Haemophilus influenzae [6] = test: Antimicrobial activity against beta-lactamase negative, ampicillin-resistant Haemophilus influenzae expressing […] mutant gene by microdilution method in presence of beta-lactamase inhibitor clavulanic acid
Haemophilus influenzae [7] = test: Antimicrobial activity against beta-lactamase positive, ampicillin-clavulanic acid resistant Haemophilus influenzae expressing […] mutant gene by microdilution method in presence of beta-lactamase inhibitor clavulanic acid
Haemophilus influenzae [8] = test: Antimicrobial activity against beta-lactamase negative, ampicillin-resistant Haemophilus influenzae expressing […] mutant gene assessed as resistant isolates by microdilution method
Haemophilus influenzae [9] = test: Antimicrobial activity against beta-lactamase negative Haemophilus influenzae expressing […] gene assessed as resistant isolates by microdilution method
Haemophilus influenzae [10] = test: Antimicrobial activity against beta-lactamase positive Haemophilus influenzae expressing […] gene assessed as resistant isolates by microdilution method
Haemophilus influenzae [11] = test: Antimicrobial activity against beta-lactamase positive Haemophilus influenzae expressing […] gene by microdilution method
Haemophilus influenzae [12] = test: Antimicrobial activity against beta-lactamase positive, ampicillin-clavulanic acid resistant Haemophilus influenzae expressing […] mutant gene assessed as resistant isolates by microdilution method
Haemophilus influenzae [13] = test: Antimicrobial activity against beta-lactamase negative, ampicillin-resistant Haemophilus influenzae expressing […] mutant gene by microdilution method
Haemophilus influenzae [14] = test: Antimicrobial activity against beta-lactamase negative Haemophilus influenzae expressing […] gene by microdilution method
Haemophilus influenzae [15] = test: Antimicrobial activity against beta-lactamase positive, ampicillin-clavulanic acid resistant Haemophilus influenzae expressing […] mutant gene by microdilution method

SMILES | Activity (Haemophilus influenzae [8]) [%] | Activity (Haemophilus influenzae [9]) [%] | Activity (Haemophilus influenzae [10]) [%] | MIC50 (Haemophilus influenzae [11]) [µg/mL] | MIC90 (Haemophilus influenzae [11]) [µg/mL] | Activity (Haemophilus influenzae [12]) [%] | MIC50 (Haemophilus influenzae [13]) [µg/mL] | MIC90 (Haemophilus influenzae [13]) [µg/mL] | MIC50 (Haemophilus influenzae [14]) [µg/mL] | MIC90 (Haemophilus influenzae [14]) [µg/mL] | MIC50 (Haemophilus influenzae [15]) [µg/mL] | MIC90 (Haemophilus influenzae [15]) [µg/mL] | further results
CC1(C)S[C@@H]2[C@H](NC(=O)[C@H](N)c3ccc(O)cc3)C(=O)N2[C@H]1C(=O)O [AMOXICILLIN] |  |  |  |  |  |  |  |  |  |  |  |  | Activity (Haemophilus influenzae [1]): 25%; Activity (Haemophilus influenzae [2]): 9.9%; MIC50 (Haemophilus influenzae [3]): 2 µg/mL; MIC90 (Haemophilus influenzae [3]): 4 µg/mL; MIC50 (Haemophilus influenzae [4]): 0.5 µg/mL; MIC90 (Haemophilus influenzae [4]): 4 µg/mL; Activity (Haemophilus influenzae [5]): 4.8%; MIC50 (Haemophilus influenzae [6]): 2 µg/mL; MIC90 (Haemophilus influenzae [6]): 4 µg/mL; MIC50 (Haemophilus influenzae [7]): 4 µg/mL; MIC90 (Haemophilus influenzae [7]): 8 µg/mL
CC1(C)S[C@@H]2[C@H](NC(=O)[C@H](N)c3ccccc3)C(=O)N2[C@H]1C(=O)O [AMPICILLIN] | 98.3 | 30 | 100 | ≥ 128 | ≥ 128 | 95.5 | 2 (≈ 5.72 µM) | 4 (≈ 11.4 µM) | 1 (≈ 2.86 µM) | 2 (≈ 5.72 µM) |  |  | 
N[C@@H](C(=O)N[C@@H]1C(=O)N2C(C(=O)O)=C(Cl)CS[C@H]12)c1ccccc1 [CEFACLOR ANHYDROUS] | 70.2 | 40 | 76.2 | 32 (≈ 87 µM) | ≥ 128 | 86.4 | 32 (≈ 87 µM) |  | 8 (≈ 21.8 µM) | 32 (≈ 87 µM) | 32 | 64 | 
C=CC1=C(C(=O)O)N2C(=O)[C@@H](NC(=O)/C(=N\O)c3csc(N)n3)[C@H]2SC1 [CEFDINIR] | 57 | 40 | 33.3 | 0.5 (≈ 1.26 µM) | 4 (≈ 10.1 µM) | 52.3 | 2 (≈ 5.06 µM) | 8 (≈ 20.2 µM) | 1 (≈ 2.53 µM) | 4 (≈ 10.1 µM) | 2 | 4 | 
CO/N=C(\C(=O)N[C@@H]1C(=O)N2C(C(=O)OCOC(=O)C(C)(C)C)=C(/C=C\c3scnc3C)CS[C@H]12)c1csc(N)n1 [CEFDITOREN PIVOXIL] |  |  |  | 0.03 (≈ 0.0483 µM) | 0.06 (≈ 0.0967 µM) |  | 0.06 (≈ 0.0967 µM) | 0.06 (≈ 0.0967 µM) | 0.03 (≈ 0.0483 µM) | 0.06 (≈ 0.0967 µM) | 0.03 | 0.06 | 
CO/N=C(\C(=O)N[C@@H]1C(=O)N2C(C(=O)O)=C(COC(C)=O)CS[C@H]12)c1csc(N)n1 [CEFOTAXIME] | 0.8 | 0 | 0 | 0.03 (≈ 0.0659 µM) | 0.06 (≈ 0.132 µM) | 0 | 0.06 (≈ 0.132 µM) | 0.5 (≈ 1.1 µM) | 0.03 (≈ 0.0659 µM) | 0.25 (≈ 0.549 µM) | 0.03 | 0.25 | 
CO/N=C(\C(=O)N[C@@H]1C(=O)N2C(C(=O)O)=C(COC(N)=O)CS[C@H]12)c1ccco1 [CEFUROXIME] | 48.8 | 20 | 19 | 2 (≈ 4.71 µM) | 8 (≈ 18.9 µM) | 45.4 | 4 (≈ 9.43 µM) | 16 (≈ 37.7 µM) | 1 (≈ 2.36 µM) | 8 (≈ 18.9 µM) | 4 | 16 | 

From ChEMBL document CHEMBL1275578, “Genotypic versus phenotypic characterization, with respect to beta-lactam susceptibility, of Haemophilus influenzae isolates exhibiting decreased susceptibility to beta-lactam resistance markers” (2009)
